PMC9784828, “Antimicrobial Activity of Peptide-Coupled Antisense Peptide Nucleic Acids in Streptococcus pneumoniae” (Microbiology Spectrum, 2022)

Assays:
[1] = system: rpoB mRNA; assay: RT-qPCR, relative expression of rpoB; type: cell-based, Streptococcus pneumoniae; conditions: TIGR4; 10 μM CPP-anti-rpoB PNA; 6 h; normalised to 5S rRNA; n = 3
Procedure: (§1) We investigated the influence of treatment with CPP-conjugated antisense PNAs on the amount of target gene mRNA in S. pneumoniae using reverse transcription-quantitative PCR (RT-qPCR) (Fig. 3). S. pneumoniae strain TIGR4 was treated with a sublethal dose (log CFU reduction of <2) of CPP-PNA conjugates. Transcript abundance of the 5S rRNA gene was used for normalization ([27]). Target gene mRNA levels in mock-treated bacteria served as controls. Treatment with 7.5 μM CPP-anti-gyrA PNAs and 10 μM CPP-anti-rpoB PNAs led to significant reductions in the respective target gene transcripts compared to the untreated control sample (Fig. 3).
(§2) For RNA isolation, 450 μL bacterial suspension (10^5 CFU/mL in BHI) was prepared for each experimental condition, treated with CPP-PNA conjugates as indicated, and incubated in a 2-mL reaction tube for 6 h at 37°C and 7 rpm (Rotor SB3; Stuart, Staffordshire, United Kingdom). Subsequently, five samples per condition were pooled. […]
(§3) cDNA synthesis was performed using the Superscript First-Strand Synthesis system for RT-qPCR (Invitrogen, Thermo Fisher Scientific, Darmstadt, Germany). Quantitative PCR amplification was conducted with SYBR Green (Thermo Fisher Scientific) using the LightCycler 480 real-time PCR system (Roche Diagnostics GmbH, Mannheim, Germany). […] Relative expression was calculated using the 2^–ΔΔ^CT method ([27]). […]

[2] = system: ply (pneumolysin) transcript; assay: RT-qPCR, relative expression of virulence gene ply; type: cell-based, Streptococcus pneumoniae; conditions: TIGR4; 10 μM CPP-anti-rpoB PNA; normalised to 5S rRNA; n = 3
Procedure: (§4) Because the product of rpoB is the β-subunit of the bacterial RNA-polymerase, which is responsible for RNA synthesis, downregulation of rpoB by treatment with antisense PNAs is expected to affect gene expression. Therefore, we tested the relative expression of two virulence factor genes following treatment with 10 μM CPP-anti-rpoB PNAs compared to expression in the mock-treated control as an example (Fig. 3C and D).
as §2, with “pooled. Bacteria were pelleted immediately, shock-frozen in liquid nitrogen, and stored at −80°C until use. Total RNA was extracted according to the protocol published by Li-Korotky et al. ([46]).” for “pooled.”
as §3

[3] = system: pspA (pneumococcal surface protein A) transcript; assay: RT-qPCR, relative expression of virulence gene pspA; type: cell-based, Streptococcus pneumoniae; conditions: TIGR4; 10 μM CPP-anti-rpoB PNA; normalised to 5S rRNA; n = 3
Procedure: as §4
as §2, with “pooled. Bacteria were pelleted immediately, shock-frozen in liquid nitrogen, and stored at −80°C until use. Total RNA was extracted according to the protocol published by Li-Korotky et al. ([46]).” for “pooled.”
as §3

[4] = system: S. pneumoniae TIGR4; assay: In vitro time-killing assay (killing kinetics); type: cell-based, Streptococcus pneumoniae; conditions: 10 μM, n = 3
Procedure: The antimicrobial activity kinetics of TAT- and (RXR)4XB-conjugated anti-gyrA PNA constructs in S. pneumoniae TIGR4 were studied using an in vitro time-killing assay. Bacteria were treated with 10 μM CPP-antisense PNAs or scrambled control PNAs (Fig. 2). Samples were collected every 2 h following antisense treatment. CFU/mL was determined by plating of serial dilutions and plotted over time. […] In contrast, (RXR)4XB-conjugated anti-gyrA PNA treatment led to a continuous reduction in S. pneumoniae CFU until complete eradication after 12 h.
For monitoring of killing kinetics, samples were collected 2 to 12 h post-treatment. Viable cell counts were determined by plating appropriate dilutions on BHI agar plates. CFU were determined by visual inspection following overnight incubation at 37°C under a 5% CO2 atmosphere. At time point 0, the viable cell count corresponded to 1 × 10^5 to 3 × 10^5 CFU/mL.

[5] = system: gyrA mRNA; assay: RT-qPCR, relative expression of gyrA; type: cell-based, Streptococcus pneumoniae; conditions: TIGR4; 7.5 μM CPP-anti-gyrA PNA; 6 h; normalised to 5S rRNA; 2^–ΔΔCT; n = 3
Procedure: as §1, §2, §3

[6] = system: G. mellonella larvae infected with S. pneumoniae TIGR4; assay: G. mellonella infection model, bacterial load; type: in vivo, Galleria mellonella; conditions: 10 nmol CPP-PNA/larva; 24 h postinfection; n = 4 larvae per group, three experiments
Procedure: To establish the antibacterial effect of PNAs in the invertebrate infection model, we assessed the bacterial loads in infected larvae (Fig. 6). Larvae were infected and subsequently treated with NaCl (mock), 10 nmol CPP-PNA, or levofloxacin (positive control), respectively. From each group, four larvae were homogenized at 24 h postinfection. CFU/larva were determined following serial dilutions of the suspension and plating on selective medium. Treatment with (RXR)4XB-anti-gyrA caused a log CFU reduction of 1 compared to that in the mock-treated larvae. The addition of 1 or 10 μg levofloxacin led to a log CFU reduction of 2 or 6, respectively.
For determination of bacterial load, larvae were infected and subsequently treated with NaCl (mock), CPP-PNAs, or levofloxacin (positive control). At 24 h after infection, larvae were homogenized. Following serial dilution, the suspension was plated on selective medium (BD Columbia CNA Agar with 5% sheep blood; Becton Dickinson GmbH, Heidelberg, Germany). Agar plates were incubated overnight at 37°C, 5% CO2. CFU/larva was determined by visual inspection. Colony identity was verified on a random basis by colony PCR using ply-specific primers.

Substance | rpoB transcript level relative to mock-treated control [1] | Expression of ply relative to mock-treated control [2] | Expression of pspA relative to mock-treated control [3] | Time to complete eradication of S. pneumoniae CFU [4] | gyrA mRNA level relative to mock-treated control [5] | log CFU reduction of bacterial load compared to mock-treated larvae [6]
GRKKRRQRRRYK-eg-ctgccaagatga [TAT-anti-rpoB PNA, HIV-1 TAT (48–57) peptide coupled to antisense PNA against S. pneumoniae rpoB] | 45% | 45% | 57% |  |  | 
RXRRXRRXRRXRXB-eg-ctgccaagatga [(RXR)4XB-anti-rpoB PNA, (RXR)4XB peptide coupled to antisense PNA against rpoB] | 51% | 56% | no significant reduction |  |  | 
RXRRXRRXRRXRXB-eg-tgcattaata [(RXR)4XB-anti-gyrA PNA, (RXR)4XB peptide coupled to antisense PNA against gyrA] |  |  |  | 12 h | 45% | 1
